In patent publication US8392127B2, “Methods and gene expression signature for assessing growth factor signaling pathway regulation status” (Merck Sharp & Dohme Corp., priority 2008, dated 2013):
Entries after “also recorded” stand apart in the source; their conditions may differ.

Tests used:
MYC signature [1] = assay: MYC signature (Bild et al.) in response to inhibition of oncology targets; assay type: cell-based; details: cancer cell lines of FIG. 6C
Procedure: FIG. 6. Relationship of AKT and MYC signatures. The AKT and MYC signature scores are highly correlated in the (A) colon (r=0.81) and (B) breast (r=0.82) tumor atlas datasets. The AKT signature score was calculated as described previously. […] (C) The Bild et al. MYC signature is inhibited by small molecule inhibitors of AKT, cMET and FGFR2, but not by taxol or inhibition of KSP. […] Experiments are listed on the left side of the heatmap (HCT116: colon cancer cells, LoVo: colon cancer cells, GTL-16: gastric cancer cells, EBC-1: lung cancer cells, KATO III: gastric cancer cells, SUM52: breast cancer cells). The drug (taxol) or drug target (all others) profiled in each experiment is indicated along the right side of the heatmap.
Bild et al. published a gene expression signature that was regulated in response to cMYC (also known as MYC) overexpression in primary human mammary epithelial cells (2006, Nature, 439:353-357). This MYC signature was analyzed in the context of tumor expression atlas data. The tumor expression atlas is a collection of gene expression data measured in several different types of human tumors, including breast, colon, gastric, kidney, and lung tumors. […] Therefore, we assessed the regulation of the MYC signature in response to inhibition of AKT and other oncology targets. […]

growth factor signature = assay: Signature inhibition in the connectivity map dataset; assay type: cell-based; details: for Enrichment / Rank in terms of significance of signature inhibition: Growth Factor Signaling Pathway signature, connectivity map dataset; for Rank in terms of significance of signature inhibition: rank among all compounds; for rank in terms of significance of growth factor signature inhibition: among all compounds in the connectivity map dataset
Excerpt: (§1) To further validate the growth factor signature, we leveraged signatures of drug response from the connectivity map dataset (Lamb et al., 2006, Science 313:1929-1935). This dataset comprises mRNA expression data for 164 distinct small molecules, representing 453 individual compound treatment experiments. These small molecule inhibitors include the PI3K inhibitors wortmannin and LY-294002 and the mTOR inhibitor sirolimus. We surmised that if the growth factor signature truly represents activation of the PI3K pathway, these compounds should have an inhibitory effect on the signature. […] In contrast, other perturbagens in the connectivity map dataset either have no effect, a less significant inhibitory effect, or an activating effect on the growth factor signaling signature. […] For example, while LY-294002 was the top ranked compound in terms of significance of proliferation signature inhibition, sirolimus was ranked fifth, and wortmannin was ranked 23rd (Table 12).

proliferation signature = assay: as above; assay type: cell-based; details: for Enrichment / Rank in terms of significance of signature inhibition: Proliferation signature, connectivity map dataset; for Rank in terms of significance of signature inhibition: rank among all compounds
Excerpt: as §1

MYC signature [2] = assay: as above; assay type: cell-based; details: c-MYC signature; for Rank in terms of significance of signature inhibition: rank among all compounds
COLO205 = assay: Sensitivity of colon cancer cell lines to AKT1/2 inhibitor (cell killing); assay type: cell-based, human; details: in vitro, grouping is relative
Excerpt: (§2) FIG. 2. Cell lines used as a starting point for signature gene discovery. Nineteen colon cancer cell lines were phenotyped for sensitivity to the AKT1/2 inhibitor L-001154547.
(§3) In order to identify a gene expression signature of growth factor signaling pathway deregulation in human tumors, six colon carcinoma cell lines HCT-8 (ATCC #CCL-244), LoVo (ATCC #CCL-229), COLO205 (ATCC #CLL-222), DLD-1 (ATCC #CCL-221), HCT-116 (ATCC #CCL-247), and HCT-15 (ATCC #CCL-225) were initially expression profiled by microarray to identify genes that are responsive to AKT1/2 small molecule inhibition. The six colon cancer cell lines were treated with either 4 μM AKT1/2 inhibitor L-001154547 ('547; 3-phenyl-2-(4-{[4-(5-pyridin-2-yl-1H-1,2,4-triazol-3-yl)piperidin-1-yl]methyl}phenyl)-1,6-naphthyridin-5(6H)-one; disclosed in WO2006065601) or 4 μM AKT1/2 inhibitor L-01173931 ('931; 6-Methyl-3-phenyl-2-(4-{[4-(5-pyridin-2-yl-1H-1,2,4-triazol-3-yl)piperidin-1-yl]-methyl}phenyl)-1,6-naphthyridin-5(6H)-one; disclosed in WO2006065601) for 6 or 24 hours. Two AKT1/2 inhibitors were used for the profiling experiments as a way to offset any off-target effects of any one compound.
(§4) Discriminant analysis of responders and non-responders using post-dose changes of gene expression was 90% accurate in leave-one-out cross-validation (data not shown). Among these 1,600 genes, we focused on 399 genes that were tightly correlated (r>0.7) with changes in expression of IRS2 across this dataset, a key mediator of growth pathway signaling (FIG. 3B) (Hennessy et al., 2005, Nat. Rev. Drug Discov. 4:988-1004). Note that the sensitivity and resistance phenotypes shown in FIG. 1 are relative, not absolute.

DLD-1 = assay: as above; assay type: cell-based, human; details: in vitro, grouping is relative
Excerpt: as §2, §3, §4

HCT-116 = assay: as above; assay type: cell-based, human; details: in vitro, grouping is relative
Excerpt: as §2, §3, §4

HCT-15 = assay: as above; assay type: cell-based, human; details: in vitro, grouping is relative
Excerpt: as §2, §3, §4

HCT-8 = assay: as above; assay type: cell-based, human; details: in vitro, grouping is relative
Excerpt: as §2, §3, §4

LoVo = assay: as above; assay type: cell-based, human; details: in vitro, grouping is relative
Excerpt: as §2, §3, §4

ERBB3 = assay: mRNA expression of growth factor receptors after growth factor treatment (microarray); assay type: cell-based, human; details: MCF7 and HT29 cells; 100 ng/ml (heregulin 30 ng/ml)
Procedure: (§5) FIG. 29. Negative feedback induced by growth factors. The data presented represents the effect of each growth factor on the mRNA expression of (A) EGFR, (B) ERBB3, (C) INSR, or (D) a recently published signature of aberrant PTEN activity. The Y-axes represent the log(10) ratio of expression relative to vehicle. […] The X-axes represent the time point after growth factor addition.
(§6) MCF-7 and HT-29 cell lines were seeded in 6-well plates to achieve 40-50% confluence at the time of growth factor addition. Cells were serum starved for 24 hours in 0.2% charcoal stripped serum, and growth factors were added at 100 ng/ml (EGF, IGF, insulin, b-FGF) or 30 ng/ml (heregulin). Concentrations of growth factors were chosen to give maximal activation of growth factor receptors as judged by receptor auto-phosphorylation. Activation of growth factor receptor pathways after growth factor addition was confirmed by Western analysis of phosphorylated MAPK and phosphorylated AKT in a separate plate of cells (data not shown). Cells were harvested at 30 minutes, 2 hours, 6 hours, 18 hours, and 24 hours after growth factor addition. DMSO (vehicle) treated cells were also harvested at each time point. RNA was prepared using RLT lysis reagent Qiagen spin columns according to manufacturer instructions.
(§7) For growth factor and AKT inhibitor treated cells, total RNA was isolated from cell lines and converted to fluorescently labeled cRNA that was hybridized to DNA oligonucleotide microarrays as described previously (Hughes et al., 2001, Nat. Biotechnol. 19:342-347; Marton et al., 1998, Nat. Med. 4:1293-1301). Briefly, 4 μg of total RNA from each treated sample was used to synthesize dsDNA through reverse transcription. cRNA was produced by in vitro transcription and labeled post-synthetically with Cy3 or Cy5. cRNA derived from growth factor or AKT inhibitor treated cells (experimental sample) was hybridized against cRNA derived from vehicle treated samples (reference sample). Two hybridizations were done with each cRNA sample pair using fluorescent dye reversal strategy. For growth factor treated cells, microarrays contained 23,880 probes representing genes or expressed sequence tags (GEO platform GPL2029). For AKT inhibitor treated cells, microarrays contained 23,658 probes representing genes or expressed sequence tags (GEO platform GPL3991). Probe sequences were chosen to maximize gene specificity and minimize the 3′-replication bias inherent in reverse transcription of mRNA. In addition, all microarrays contained approximately 2,000 control probes for quality control purposes. All probes on the microarrays were synthesized in situ with inkjet technology (Agilent Technologies, Palo Alto, Calif.; Hughes et al, 2001, Nat. Biotechnol. 19:342-347). After hybridization, arrays were scanned and fluorescence intensities for each probe were recorded. Ratios of transcript abundance (experimental to control) were obtained following normalization and correction of the array intensity data. Gene expression data was analyzed using Rosetta Resolver gene expression analysis software (version 7.0, Rosetta Biosoftware, Seattle, Wash.) and MATLAB (The MathWorks, Natick, Mass.).
(§8) As such, care should be taken when using mRNA levels of ERBB3 or INSR as a surrogate for activity of signaling through these receptors.

INSR = assay: as above; assay type: cell-based, human; details: MCF7 and HT29 cells; 100 ng/ml (heregulin 30 ng/ml)
Procedure: as §5, §6, §7, §8

[3] = tested on: growth factor signaling pathway signature; assay: Regulation of the growth factor signaling pathway signature by growth factors and inhibitors; assay type: cell-based; details: HT29 and MCF7 cells; 0.5, 2, 6, 18, or 24 hours
Excerpt: FIG. 9. Inverse regulation of the growth factor signaling pathway signature by growth factors relative to growth factor pathway inhibitors. Genes listed in Table 5 are shown along the Y-axis, and various treatments are listed along the X-axis. The drug treatment/drug targets are listed along the left hand side, and functional groupings are listed along the right hand side. […] From the growth factor compendium, we show data from both colon (HT29) and breast (MCF7) cells treated with heregulin (a growth factor that binds to Erbb family receptors and activates PI3K/AKT signaling). Cells were treated with heregulin for 0.5, 2, 6, 18, or 24 hours.
Because we developed this novel growth factor signaling pathway signature based on regulation by inhibitors of growth factor pathway signaling, we hypothesized that our signature genes would be inversely regulated in vitro by treatments that activate growth factor signaling.

EGFR = assay: mRNA expression of growth factor receptors after growth factor treatment (microarray); assay type: cell-based, human; details: MCF7 and HT29 cells; 100 ng/ml (heregulin 30 ng/ml)
Procedure: as §5, §6, §7, §8

CC(=O)O[C@H]1C(=O)[C@@]2(C)[C@H]([C@H](OC(=O)c3ccccc3)[C@]3(O)C[C@H](OC(=O)[C@H](O)[C@@H](NC(=O)c4ccccc4)c4ccccc4)C(C)=C1C3(C)C)[C@]1(OC(C)=O)CO[C@@H]1C[C@@H]2O [taxol]
inhibition of the MYC signature developed by Bild et al. (MYC signature [1]): not inhibited

CO[C@H]1C[C@@H]2CC[C@@H](C)[C@@](O)(O2)C(=O)C(=O)N2CCCC[C@H]2C(=O)O[C@H]([C@H](C)C[C@@H]2CC[C@@H](O)[C@H](OC)C2)CC(=O)[C@H](C)/C=C(\C)[C@@H](O)[C@@H](OC)C(=O)[C@H](C)C[C@H](C)/C=C/C=C/C=C/1C [sirolimus]
Enrichment (growth factor signature): −0.865 | Rank in terms of significance of signature inhibition (growth factor signature): 1 | rank in terms of significance of growth factor signature inhibition (growth factor signature): 1 | Enrichment (proliferation signature): −0.482 | Rank in terms of significance of signature inhibition (proliferation signature): 5 | Enrichment (MYC signature [2]): −0.68 | Rank in terms of significance of signature inhibition (MYC signature [2]): 1

O=c1[nH]ccc2nc(-c3ccc(CN4CCC(c5n[nH]c(-c6ccccn6)n5)CC4)cc3)c(-c3ccccc3)cc12 [L-001154547, 3-phenyl-2-(4-{[4-(5-pyridin-2-yl-1H-1,2,4-triazol-3-yl)piperidin-1-yl]methyl}phenyl)-1,6-naphthyridin-5(6H)-one]
sensitivity to AKT inhibition (COLO205): more sensitive; also recorded: relatively sensitive | sensitivity to AKT inhibition (DLD-1): more resistance; also recorded: relatively resistant | sensitivity to AKT inhibition (HCT-116): more resistance; also recorded: relatively resistant | sensitivity to AKT inhibition (HCT-15): more resistance; also recorded: relatively resistant | sensitivity to AKT inhibition (HCT-8): more sensitive; also recorded: relatively sensitive | sensitivity to AKT inhibition (LoVo): more sensitive; also recorded: relatively sensitive

heregulin
ERBB3 mRNA expression (ERBB3): significant down-regulation | INSR mRNA expression (INSR): significant down-regulation | regulation of the growth factor signaling pathway signature genes [3]: inverse regulation of the signature genes

IGF: growth factor added to cells at 100 ng/ml
ERBB3 mRNA expression (ERBB3): significant down-regulation | INSR mRNA expression (INSR): significant down-regulation

COC[C@H]1OC(=O)c2coc3c2[C@@]1(C)C1=C(C3=O)[C@@H]2CCC(=O)[C@@]2(C)C[C@H]1OC(C)=O [wortmannin]
Enrichment (growth factor signature): −0.776 | Rank in terms of significance of signature inhibition (growth factor signature): 2 | rank in terms of significance of growth factor signature inhibition (growth factor signature): 2 | Enrichment (proliferation signature): −0.387 | Rank in terms of significance of signature inhibition (proliferation signature): 23 | rank in terms of significance of proliferation signature inhibition (proliferation signature; among all compounds in the connectivity map dataset): 23 | Enrichment (MYC signature [2]): −0.561 | Rank in terms of significance of signature inhibition (MYC signature [2]): 7

insulin: growth factor added to cells at 100 ng/ml
ERBB3 mRNA expression (ERBB3): significant down-regulation | INSR mRNA expression (INSR): significant down-regulation

EGF: growth factor added to cells at 100 ng/ml
EGFR mRNA expression (EGFR): did not result in down-regulation | ERBB3 mRNA expression (ERBB3): significant down-regulation | INSR mRNA expression (INSR): significant down-regulation

b-FGF: growth factor added to cells at 100 ng/ml
ERBB3 mRNA expression (ERBB3): significant down-regulation | INSR mRNA expression (INSR): significant down-regulation

O=c1cc(N2CCOCC2)oc2c(-c3ccccc3)cccc12 [LY-294002]
Enrichment (growth factor signature): −0.748 | Rank in terms of significance of signature inhibition (growth factor signature): 3 | rank in terms of significance of growth factor signature inhibition (growth factor signature): 3 | Enrichment (proliferation signature): −0.527 | Rank in terms of significance of signature inhibition (proliferation signature): 1 | Enrichment (MYC signature [2]): −0.602 | Rank in terms of significance of signature inhibition (MYC signature [2]): 2
